Experimental findings from US20240246942A1, “KINASE INHIBITORS FOR THE TREATMENT OF NEURODEGENERATIVE DISEASES” (priority 2020, published 2024) are described below.

What all share (assay): biochemical
Assay [1] deals with T1, panel of 374 wild-type kinases (Homo sapiens, UniProt P53350).
T1 construct: purchased Reaction Biology Corporation
The following applies: read-out: % Enzyme Activity (relative to DMSO controls), kinase PLK1.

For assay [2], the target named is T2, panel of 374 wild-type kinases (Homo sapiens, UniProt P80192).
T2 construct: purchased Reaction Biology Corporation
T2 sequence (P80192 whole entry): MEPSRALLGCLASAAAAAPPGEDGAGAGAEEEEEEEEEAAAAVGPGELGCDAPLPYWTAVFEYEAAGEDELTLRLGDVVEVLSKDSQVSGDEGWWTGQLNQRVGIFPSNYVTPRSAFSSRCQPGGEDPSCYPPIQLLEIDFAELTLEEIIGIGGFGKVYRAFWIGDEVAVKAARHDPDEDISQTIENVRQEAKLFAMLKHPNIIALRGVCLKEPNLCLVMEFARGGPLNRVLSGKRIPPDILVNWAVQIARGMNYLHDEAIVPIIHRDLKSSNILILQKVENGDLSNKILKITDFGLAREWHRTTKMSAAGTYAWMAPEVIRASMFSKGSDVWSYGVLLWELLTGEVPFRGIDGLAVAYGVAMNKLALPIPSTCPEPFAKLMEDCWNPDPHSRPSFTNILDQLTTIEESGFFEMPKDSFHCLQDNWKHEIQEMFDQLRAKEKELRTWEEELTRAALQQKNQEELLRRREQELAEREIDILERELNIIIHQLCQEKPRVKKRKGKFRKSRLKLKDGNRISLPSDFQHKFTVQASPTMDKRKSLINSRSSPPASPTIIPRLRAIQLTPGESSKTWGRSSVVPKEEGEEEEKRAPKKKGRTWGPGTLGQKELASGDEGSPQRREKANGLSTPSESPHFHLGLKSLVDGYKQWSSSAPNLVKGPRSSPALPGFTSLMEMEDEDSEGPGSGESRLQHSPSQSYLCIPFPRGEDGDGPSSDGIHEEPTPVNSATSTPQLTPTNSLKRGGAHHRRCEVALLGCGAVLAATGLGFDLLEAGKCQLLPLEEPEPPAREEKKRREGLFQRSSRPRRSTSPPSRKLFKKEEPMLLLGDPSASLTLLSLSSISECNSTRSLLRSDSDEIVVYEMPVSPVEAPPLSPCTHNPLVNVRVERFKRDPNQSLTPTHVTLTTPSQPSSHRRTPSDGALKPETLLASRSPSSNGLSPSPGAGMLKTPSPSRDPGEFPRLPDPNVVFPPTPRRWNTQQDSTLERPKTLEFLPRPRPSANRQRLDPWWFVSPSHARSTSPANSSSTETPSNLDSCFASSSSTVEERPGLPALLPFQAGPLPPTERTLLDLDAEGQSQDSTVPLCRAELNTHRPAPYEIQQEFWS
The settings on record: read-out: % Enzyme Activity (relative to DMSO controls), MLK1/MAP3K9.

The target in assay [3] is T3, panel of 374 wild-type kinases (Homo sapiens, UniProt Q9P286).
T3 construct: purchased Reaction Biology Corporation
T3 sequence (Q9P286 whole entry): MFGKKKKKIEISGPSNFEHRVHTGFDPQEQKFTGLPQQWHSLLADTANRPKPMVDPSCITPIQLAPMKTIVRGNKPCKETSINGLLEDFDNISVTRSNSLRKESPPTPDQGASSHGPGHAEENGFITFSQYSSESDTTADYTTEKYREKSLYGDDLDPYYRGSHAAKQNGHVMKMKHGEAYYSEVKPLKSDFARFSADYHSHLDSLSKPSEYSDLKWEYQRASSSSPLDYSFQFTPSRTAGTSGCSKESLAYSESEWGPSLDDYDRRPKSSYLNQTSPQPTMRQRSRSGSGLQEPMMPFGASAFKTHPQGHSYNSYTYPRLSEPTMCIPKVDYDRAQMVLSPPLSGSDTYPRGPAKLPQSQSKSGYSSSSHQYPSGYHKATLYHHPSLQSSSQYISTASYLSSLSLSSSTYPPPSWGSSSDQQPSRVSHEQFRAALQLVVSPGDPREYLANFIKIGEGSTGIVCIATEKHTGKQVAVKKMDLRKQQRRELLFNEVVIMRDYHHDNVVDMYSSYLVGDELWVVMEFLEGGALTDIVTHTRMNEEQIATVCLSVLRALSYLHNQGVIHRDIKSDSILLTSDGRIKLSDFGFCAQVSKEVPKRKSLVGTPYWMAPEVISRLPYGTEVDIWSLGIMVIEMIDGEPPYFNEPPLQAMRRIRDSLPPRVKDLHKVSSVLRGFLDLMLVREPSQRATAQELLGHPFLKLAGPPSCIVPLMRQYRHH
The settings on record: read-out: % Enzyme Activity (relative to DMSO controls), kinase PAK5.

Assay [4] deals with T4, panel of 374 wild-type kinases (Homo sapiens, UniProt P24723).
T4 construct: purchased Reaction Biology Corporation
T4 sequence (P24723 whole entry): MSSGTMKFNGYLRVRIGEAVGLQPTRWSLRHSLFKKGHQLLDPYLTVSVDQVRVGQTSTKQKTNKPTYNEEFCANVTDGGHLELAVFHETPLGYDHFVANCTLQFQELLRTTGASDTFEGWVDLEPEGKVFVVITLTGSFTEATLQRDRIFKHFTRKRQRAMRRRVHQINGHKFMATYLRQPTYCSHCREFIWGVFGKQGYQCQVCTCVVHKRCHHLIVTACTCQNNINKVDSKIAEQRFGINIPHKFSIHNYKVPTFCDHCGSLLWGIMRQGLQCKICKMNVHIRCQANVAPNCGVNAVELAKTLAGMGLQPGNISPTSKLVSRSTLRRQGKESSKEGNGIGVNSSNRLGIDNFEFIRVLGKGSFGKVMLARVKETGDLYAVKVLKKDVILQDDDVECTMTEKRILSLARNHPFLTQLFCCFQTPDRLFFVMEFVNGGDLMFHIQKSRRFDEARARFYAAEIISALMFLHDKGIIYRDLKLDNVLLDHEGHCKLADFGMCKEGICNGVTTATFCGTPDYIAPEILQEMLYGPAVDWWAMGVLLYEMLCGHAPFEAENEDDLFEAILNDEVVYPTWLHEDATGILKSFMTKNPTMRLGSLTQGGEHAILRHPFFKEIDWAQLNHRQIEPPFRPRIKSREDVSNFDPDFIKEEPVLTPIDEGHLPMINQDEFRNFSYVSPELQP
The settings on record: read-out: % Enzyme Activity (relative to DMSO controls), kinase PKCeta.

The target of assay [5] is T5, panel of 374 wild-type kinases (Homo sapiens, UniProt Q96RR4).
T5 construct: purchased Reaction Biology Corporation
The following applies: read-out: % Enzyme Activity (relative to DMSO controls), CAMKK2.

Assay [6] deals with T6, panel of 374 wild-type kinases (Homo sapiens, UniProt Q9NYL2).
T6 construct: purchased Reaction Biology Corporation
T6 sequence (Q9NYL2 whole entry): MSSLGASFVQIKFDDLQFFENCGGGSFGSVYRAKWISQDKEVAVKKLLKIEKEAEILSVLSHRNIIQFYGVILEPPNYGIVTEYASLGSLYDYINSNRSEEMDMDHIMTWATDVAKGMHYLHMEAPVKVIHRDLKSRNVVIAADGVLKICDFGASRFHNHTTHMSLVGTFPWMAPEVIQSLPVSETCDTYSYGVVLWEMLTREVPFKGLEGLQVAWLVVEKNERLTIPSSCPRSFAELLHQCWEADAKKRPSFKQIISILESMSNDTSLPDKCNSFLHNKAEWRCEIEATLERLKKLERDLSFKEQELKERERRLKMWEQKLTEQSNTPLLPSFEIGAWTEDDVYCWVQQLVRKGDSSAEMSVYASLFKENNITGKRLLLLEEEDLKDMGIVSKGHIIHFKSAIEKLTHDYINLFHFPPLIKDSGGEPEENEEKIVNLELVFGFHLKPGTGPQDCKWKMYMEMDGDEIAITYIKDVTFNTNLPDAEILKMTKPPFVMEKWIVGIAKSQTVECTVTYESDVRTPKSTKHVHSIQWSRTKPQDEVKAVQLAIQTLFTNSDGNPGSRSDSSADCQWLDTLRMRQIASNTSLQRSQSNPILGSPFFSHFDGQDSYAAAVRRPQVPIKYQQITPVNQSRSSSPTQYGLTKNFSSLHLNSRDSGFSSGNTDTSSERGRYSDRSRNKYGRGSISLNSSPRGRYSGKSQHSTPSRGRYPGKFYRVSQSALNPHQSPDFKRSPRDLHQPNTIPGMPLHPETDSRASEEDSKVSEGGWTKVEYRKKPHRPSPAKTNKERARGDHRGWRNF
The following applies: read-out: % Enzyme Activity (relative to DMSO controls), kinase ZAK/MLTK.

Assay [7] addresses T7, panel of 374 wild-type kinases (Homo sapiens, UniProt Q9H4B4).
T7 construct: purchased Reaction Biology Corporation
The following applies: read-out: % Enzyme Activity (relative to DMSO controls), kinase PLK3.

For assay [8], the target named is T8, panel of 374 wild-type kinases (Homo sapiens, UniProt P07948).
T8 construct: purchased Reaction Biology Corporation
T8 sequence (P07948 whole entry): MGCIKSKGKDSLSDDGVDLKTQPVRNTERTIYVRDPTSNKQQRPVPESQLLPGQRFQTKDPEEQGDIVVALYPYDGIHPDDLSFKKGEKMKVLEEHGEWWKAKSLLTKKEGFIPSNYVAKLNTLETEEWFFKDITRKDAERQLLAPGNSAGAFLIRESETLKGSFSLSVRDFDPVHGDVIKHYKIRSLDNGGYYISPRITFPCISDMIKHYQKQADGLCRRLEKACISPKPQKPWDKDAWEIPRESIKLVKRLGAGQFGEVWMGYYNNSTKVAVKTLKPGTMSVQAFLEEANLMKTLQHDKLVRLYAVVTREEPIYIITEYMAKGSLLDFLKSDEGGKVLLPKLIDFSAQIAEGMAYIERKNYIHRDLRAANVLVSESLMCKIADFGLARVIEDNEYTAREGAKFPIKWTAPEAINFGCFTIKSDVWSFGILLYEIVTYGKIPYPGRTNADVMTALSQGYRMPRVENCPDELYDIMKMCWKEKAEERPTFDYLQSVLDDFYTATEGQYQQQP
The settings on record: read-out: % Enzyme Activity (relative to DMSO controls), LYN.

For assay [9], the target named is T9, panel of 374 wild-type kinases (Homo sapiens, UniProt Q7L7X3).
T9 construct: purchased Reaction Biology Corporation
T9 sequence (Q7L7X3 1-1001): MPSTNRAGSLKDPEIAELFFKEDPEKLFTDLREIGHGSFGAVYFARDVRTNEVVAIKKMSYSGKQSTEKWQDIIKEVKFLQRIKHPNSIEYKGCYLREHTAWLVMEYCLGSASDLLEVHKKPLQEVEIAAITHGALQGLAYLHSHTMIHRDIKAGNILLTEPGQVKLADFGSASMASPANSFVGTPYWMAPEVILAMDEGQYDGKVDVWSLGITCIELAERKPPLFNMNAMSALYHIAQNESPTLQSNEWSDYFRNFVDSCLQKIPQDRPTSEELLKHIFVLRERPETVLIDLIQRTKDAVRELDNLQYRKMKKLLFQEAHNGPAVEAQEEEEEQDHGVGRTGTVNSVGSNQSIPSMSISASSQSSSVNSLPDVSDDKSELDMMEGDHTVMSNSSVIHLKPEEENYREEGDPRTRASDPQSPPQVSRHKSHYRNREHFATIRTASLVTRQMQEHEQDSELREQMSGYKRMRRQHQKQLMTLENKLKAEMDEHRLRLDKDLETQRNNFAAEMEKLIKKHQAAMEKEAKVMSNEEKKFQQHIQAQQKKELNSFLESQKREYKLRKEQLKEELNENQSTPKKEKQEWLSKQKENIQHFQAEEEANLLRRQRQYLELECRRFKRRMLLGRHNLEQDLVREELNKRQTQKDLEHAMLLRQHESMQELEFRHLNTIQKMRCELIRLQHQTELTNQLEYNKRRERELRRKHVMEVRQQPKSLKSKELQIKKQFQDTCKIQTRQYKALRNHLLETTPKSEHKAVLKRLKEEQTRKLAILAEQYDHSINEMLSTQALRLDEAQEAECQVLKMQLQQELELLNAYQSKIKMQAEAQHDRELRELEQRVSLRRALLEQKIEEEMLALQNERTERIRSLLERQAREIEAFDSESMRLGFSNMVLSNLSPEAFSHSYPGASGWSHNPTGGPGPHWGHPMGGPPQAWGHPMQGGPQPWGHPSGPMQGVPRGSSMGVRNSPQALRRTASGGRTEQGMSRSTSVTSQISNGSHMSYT
The settings on record: read-out: % Enzyme Activity (relative to DMSO controls), kinase TAOK1.

Assay [10] has as its target T10, panel of 374 wild-type kinases (Homo sapiens, UniProt Q9H093).
T10 construct: purchased Reaction Biology Corporation
T10 sequence (Q9H093 1-628): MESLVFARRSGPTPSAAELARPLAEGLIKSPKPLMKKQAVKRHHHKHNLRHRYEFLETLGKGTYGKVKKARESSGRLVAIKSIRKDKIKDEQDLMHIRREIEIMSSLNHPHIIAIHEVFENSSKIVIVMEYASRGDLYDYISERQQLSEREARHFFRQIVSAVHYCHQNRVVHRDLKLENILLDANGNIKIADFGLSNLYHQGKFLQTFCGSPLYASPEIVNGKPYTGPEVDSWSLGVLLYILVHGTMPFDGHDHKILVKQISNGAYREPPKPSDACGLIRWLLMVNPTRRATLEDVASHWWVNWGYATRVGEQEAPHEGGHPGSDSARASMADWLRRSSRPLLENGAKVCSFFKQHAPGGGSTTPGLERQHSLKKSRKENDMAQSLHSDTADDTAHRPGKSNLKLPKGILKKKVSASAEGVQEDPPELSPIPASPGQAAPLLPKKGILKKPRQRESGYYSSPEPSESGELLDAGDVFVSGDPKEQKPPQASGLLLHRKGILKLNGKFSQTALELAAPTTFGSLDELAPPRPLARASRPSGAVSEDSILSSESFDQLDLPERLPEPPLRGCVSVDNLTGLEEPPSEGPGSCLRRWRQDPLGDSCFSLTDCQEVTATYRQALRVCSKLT
The settings on record: read-out: % Enzyme Activity (relative to DMSO controls), kinase SNARK/NUAK2.

T1 sequence (P53350 whole entry): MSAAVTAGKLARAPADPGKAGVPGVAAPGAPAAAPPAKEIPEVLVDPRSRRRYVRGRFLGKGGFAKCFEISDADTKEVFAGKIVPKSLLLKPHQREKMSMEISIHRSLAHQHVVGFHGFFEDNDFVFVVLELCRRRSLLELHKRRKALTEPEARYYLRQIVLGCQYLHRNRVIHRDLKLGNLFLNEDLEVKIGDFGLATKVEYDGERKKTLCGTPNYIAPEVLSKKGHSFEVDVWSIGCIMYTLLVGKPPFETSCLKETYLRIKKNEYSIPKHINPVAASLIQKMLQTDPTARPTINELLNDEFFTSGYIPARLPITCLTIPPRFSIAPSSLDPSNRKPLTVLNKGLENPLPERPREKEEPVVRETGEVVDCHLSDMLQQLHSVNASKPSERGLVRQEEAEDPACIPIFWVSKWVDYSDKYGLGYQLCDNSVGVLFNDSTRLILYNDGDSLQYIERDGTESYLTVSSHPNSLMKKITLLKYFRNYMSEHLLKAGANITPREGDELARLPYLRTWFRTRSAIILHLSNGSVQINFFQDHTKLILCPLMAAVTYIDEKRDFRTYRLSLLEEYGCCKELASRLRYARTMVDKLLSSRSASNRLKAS
T7 sequence (Q9H4B4 whole entry): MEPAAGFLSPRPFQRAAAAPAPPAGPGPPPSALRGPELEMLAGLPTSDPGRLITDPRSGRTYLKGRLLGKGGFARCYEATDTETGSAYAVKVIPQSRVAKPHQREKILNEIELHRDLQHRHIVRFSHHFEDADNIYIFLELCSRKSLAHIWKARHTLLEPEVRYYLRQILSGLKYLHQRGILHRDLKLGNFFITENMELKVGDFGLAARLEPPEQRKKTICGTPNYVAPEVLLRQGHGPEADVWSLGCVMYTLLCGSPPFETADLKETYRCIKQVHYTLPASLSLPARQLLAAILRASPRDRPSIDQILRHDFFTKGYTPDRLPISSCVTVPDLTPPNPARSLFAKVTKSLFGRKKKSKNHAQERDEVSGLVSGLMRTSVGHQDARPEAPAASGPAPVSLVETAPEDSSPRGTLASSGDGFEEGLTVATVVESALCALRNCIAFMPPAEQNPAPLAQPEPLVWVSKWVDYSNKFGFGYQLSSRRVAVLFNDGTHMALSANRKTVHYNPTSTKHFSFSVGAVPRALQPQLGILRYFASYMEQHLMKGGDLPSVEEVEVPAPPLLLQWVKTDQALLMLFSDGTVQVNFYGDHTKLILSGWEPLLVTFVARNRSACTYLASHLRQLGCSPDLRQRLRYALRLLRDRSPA

For `O=C(Nc1cnn(-c2csc(C(=O)NC3COC3)c2)c1)Nc1ccccc1Cl` [Compound 17, 4-(4-(3-(2-chlorophenyl)ureido)-1H-pyrazol-1-yl)-N-(oxetan-3-yl)thiophene-2-carboxamide], the remaining activity at 5 µM in assay [1] stood at 97%; in assay [2], 95.1%; in [3], 92.1%; in assay [4] it was 103%; in assay [5] it was 91.1%; in assay [6], 101%. Besides, the remaining activity at 5 µM in assay [7] worked out at 96.1%; in assay [8], 96.8%; in assay [9] it was 122%; in assay [10], 99.8%.

As for `O=C(Nc1cnn(-c2csc(C(=O)NC3COC3)c2)c1)Nc1c(F)cccc1Cl` [Compound 25, 4-(4-(3-(2-chloro-6-fluorophenyl)ureido)-1H-pyrazol-1-yl)-N-(oxetan-3-yl)thiophene-2-carboxamide], the remaining activity at 5 µM in assay [1] stood at 95.5%; in assay [2], 88.5%; in assay [3], 92.9%; in assay [4], 99%; in assay [5] it was 81%; in [6], 90.4%. The remaining activity at 5 µM stood at 96% in assay [7], 95.3% in assay [8], 90.6% in [9] and 97.8% in [10].

In the case of `Cc1sc(C(=O)NC2COC2)cc1-n1cc(NC(=O)Nc2c(F)cccc2Cl)cn1` [Compound 27, 4-(4-(3-(2-chloro-6-fluorophenyl)ureido)-1H-pyrazol-1-yl)-5-methyl-N-(oxetan-3-yl)thiophene-2-carboxamide], the remaining activity at 10 µM in [1] (10 uM) was 104%; in assay [2] (10 uM), 87.5%; in assay [3] (10 uM), 103%; in [4] (10 uM), 91.6%; in assay [5] (10 uM) it was 111%; in assay [6] (10 uM), 89.9%. Also, the remaining activity at 10 µM in assay [7] (10 uM) was 102%; in [8] (10 uM), 106%; in assay [9] (10 uM), 110%; in assay [10] (10 uM), 112%.
